Laboratory results: BindingDB's records for patent US10781211 (LUNDBECK LA JOLLA RESEARCH CENTER, INC., 2020)

Molecular target: T1, Monoglyceride lipase (Homo sapiens, UniProt Q99685)
T1 sequence (Q99685 whole entry): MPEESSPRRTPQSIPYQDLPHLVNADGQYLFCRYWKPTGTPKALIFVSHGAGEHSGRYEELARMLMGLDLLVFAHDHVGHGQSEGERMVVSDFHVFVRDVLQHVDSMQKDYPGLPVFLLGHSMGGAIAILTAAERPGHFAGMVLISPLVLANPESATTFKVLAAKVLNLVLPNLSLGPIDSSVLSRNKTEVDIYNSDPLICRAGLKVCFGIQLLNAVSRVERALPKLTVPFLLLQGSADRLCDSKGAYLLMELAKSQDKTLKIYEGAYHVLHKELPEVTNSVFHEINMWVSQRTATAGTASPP
Assay: In Vitro Competitive Activity-Based Protein Profiling Assay
Procedure: Human: Proteomes (human prefrontal cortex or cell membrane fractions) (50 μL, 1.0-2.0 mg/mL total protein concentration) were preincubated with varying concentrations of inhibitors at 37° C. After 30 min, FP-Rh or JW912 (1.0 μL, 50 μM in DMSO) was added and the mixture was incubated for another 30 min at room temperature. Reactions were quenched with SDS loading buffer (15 μL-4X) and run on SDS-PAGE.

Row | Compound | IC50
1 | O=C(OC(C(F)(F)F)C(F)(F)F)N1CCC2(CCCN2Cc2cc(N3CCOCC3)cc(C(F)(F)F)c2)CC1 [US10781211, Example 204] | < 100 nM
2 | O=C(OC(C(F)(F)F)C(F)(F)F)N1CCC2(CCN(Cc3cc(F)cc(N4CCCCC4)c3)C2)CC1 [US10781211, Example 233] | < 100 nM
3 | O=C(OC(C(F)(F)F)C(F)(F)F)N1CCC2(CCN(Cc3ccc(N4CCCCC4)c(C(F)(F)F)c3)C2)CC1 [US10781211, Example 228] | < 100 nM
4 | CC1CN(c2cc(CN3CCC4(CCN(C(=O)OC(C(F)(F)F)C(F)(F)F)CC4)C3)cc(C(F)(F)F)c2)CCO1 (configuration not stated) [US10781211, Example 252] | < 100 nM
5 | CC1CCCN(c2cc(CN3CCCC34CCN(C(=O)OC(C(F)(F)F)C(F)(F)F)CC4)cc(C(F)(F)F)c2)C1 (configuration not stated) [US10781211, Example 221] | < 100 nM
6 | O=C(OC(C(F)(F)F)C(F)(F)F)N1CCC2(CCCN2Cc2cc(CN3CCCCC3)cc(C(F)(F)F)c2)CC1 [US10781211, Example 244] | < 100 nM
7 | O=C(OC(C(F)(F)F)C(F)(F)F)N1CCC2(CCCN2Cc2cc(F)cc(N3CCCCC3)c2)CC1 [US10781211, Example 236] | < 100 nM
8 | O=C(OC(C(F)(F)F)C(F)(F)F)N1CCC2(CCCN2Cc2cc(CN3CCCCC3)cc(OC(F)(F)F)c2)CC1 [US10781211, Example 269] | < 100 nM
9 | O=C(OC(C(F)(F)F)C(F)(F)F)N1CCC2(CCN(Cc3ccc(C(F)(F)F)c(N4CCCCC4)c3)C2)CC1 [US10781211, Example 234] | < 100 nM
10 | O=C(OC(C(F)(F)F)C(F)(F)F)N1CCC2(CCCN2Cc2cc(N3CCCC3)cc(C(F)(F)F)c2)CC1 [US10781211, Example 203] | < 100 nM
11 | CC1CCN(c2cc(C(F)(F)F)ccc2CN2CCC3(CCN(C(=O)OC(C(F)(F)F)C(F)(F)F)CC3)C2)C1 (configuration not stated) [US10781211, Example 219] | < 100 nM
12 | O=C(OC(C(F)(F)F)C(F)(F)F)N1CCC2(CCN(Cc3cc(Cl)cc(N4CCCCC4)c3)C2)CC1 [US10781211, Example 232] | < 100 nM
13 | CC1CCCN(c2cc(C(F)(F)F)ccc2CN2CCC3(CCN(C(=O)OC(C(F)(F)F)C(F)(F)F)CC3)C2)C1 (configuration not stated) [US10781211, Example 216] | < 100 nM
14 | O=C(OC(C(F)(F)F)C(F)(F)F)N1CCC2(CCCN2Cc2cc(CN3CCCC3)cc(OC(F)(F)F)c2)CC1 [US10781211, Example 270] | < 100 nM
15 | O=C(OC(C(F)(F)F)C(F)(F)F)N1CCC2(CCCN2Cc2cc(N3CCCCC3)cc(S(F)(F)(F)(F)F)c2)CC1 [US10781211, Example 263] | < 100 nM
16 | O=C(OC(C(F)(F)F)C(F)(F)F)N1CCC2(CCN(Cc3cc(CN4CCCCC4)cc(C(F)(F)F)c3)C2)CC1 [US10781211, Example 245] | < 100 nM
17 | O=C(OC(C(F)(F)F)C(F)(F)F)N1CCC2(CCN(Cc3ccc(S(F)(F)(F)(F)F)cc3N3CCCCC3)C2)CC1 [US10781211, Example 241] | < 100 nM
18 | O=C(OC(C(F)(F)F)C(F)(F)F)N1CCC2(CCN(Cc3cc(N4CCCC4)cc(C(F)(F)F)c3)C2)CC1 [US10781211, Example 202] | < 100 nM
19 | O=C(OC(C(F)(F)F)C(F)(F)F)N1CCC2(CCN(Cc3ccc(C(F)(F)F)cc3N3CCCC3)C2)CC1 [US10781211, Example 201] | < 100 nM
20 | CC1CCN(c2cc(CN3CCC4(CCN(C(=O)OC(C(F)(F)F)C(F)(F)F)CC4)C3)cc(C(F)(F)F)c2)C1 (configuration not stated) [US10781211, Example 229] | < 100 nM
21 | O=C(OC(C(F)(F)F)C(F)(F)F)N1CCC2(CCN(Cc3cc(N4CCOCC4)cc(C(F)(F)F)c3)C2)CC1 [US10781211, Example 277] | < 100 nM
22 | O=C(OC(C(F)(F)F)C(F)(F)F)N1CCC2(CCCN2Cc2ccc(C(F)(F)F)cc2CN2CCCC2)CC1 [US10781211, Example 262] | < 100 nM
